ChEMBL document CHEMBL1150514, “Synthesis and HIV-1 reverse transcriptase inhibition properties of two new methylenephosphonate analogues of 3-azido-3-deoxythymidine-5-triphosphate” (Bioorg Med Chem Lett, 1995)

Molecular target: Human immunodeficiency virus type 1 reverse transcriptase (Human immunodeficiency virus 1, UniProt Q72547)
Assay: Inhibitory activity against HIV-1 reverse transcriptase

Row | IC50 [µM] | Compound
1 | 39 | Cc1cn(C2CC(N=[N+]=[N-])C(COP(=O)(O)CCCP(=O)(O)O)O2)c(=O)[nH]c1=O (stereo not drawn)
2 | 48 | Cc1cn(C2CC(N=[N+]=[N-])C(COP(=O)(O)CP(=O)(O)CP(=O)(O)O)O2)c(=O)[nH]c1=O (stereo not drawn)
3 | 0.043 | Cc1cn([C@H]2C[C@H](N=[N+]=[N-])[C@@H](CO[P@](=O)(O)O[P@](=O)(O)OP(=O)(O)O)O2)c(=O)[nH]c1=O [ZIDOVUDINE TRIPHOSPHATE]
